Data on 9 compounds can be found in PubChem BioAssay (NCI).

Several values for one entry are separate records, joined by “and”; a condition that tells them apart may be missing. Identical values can stand only once.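 Cells were grown in 96-well plates and exposed to each compound for 48 hours at five concentrations; endpoints were interpolated linearly between bracketing concentrations, or set to the highest concentration if not reached. Here, GI50 denotes the concentration required for 50% inhibition of growth. TGI: total growth inhibition.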

Some test systems named below: SR leukemia; OVCAR-8 ovarian; MOLT-4 leukemia; A498 renal; UACC-257 melanoma; KM12 colon; OVCAR-4 ovarian; HCT-15 colon; SN12C renal; SF-295 CNS.
Common to all, as to assay: inhibition of tumour cell growth, NCI panel, 48 h

Consider `O=C(Nc1ccc(Oc2cccc(Cl)c2)c(Cl)c1)c1cccnc1`, for which the GI50 with SR leukemia is 0.395 µM; with OVCAR-8 ovarian, 2.85 µM; in the assay on MOLT-4 leukemia it was 2.86 µM; in the assay with A498 renal, 1.52 µM; with UACC-257 melanoma, 5.1 µM; with KM12 colon it was 0.782 µM. Moreover, the GI50 with OVCAR-4 ovarian is 14.5 µM; with HCT-15 colon, 0.343 µM; in the assay with SN12C renal it was 3.74 µM; with SF-295 CNS, 1.33 µM. For the same compound, the TGI in the assay with SR leukemia was greater than 50 µM; with OVCAR-8 ovarian, 33.9 µM; in the assay on MOLT-4 leukemia, greater than 50 µM; in the assay on A498 renal, 4.68 µM; in the assay with UACC-257 melanoma, 27 µM; in the assay on KM12 colon, 12 µM. Also, the TGI in the assay on OVCAR-4 ovarian was greater than 50 µM; in the assay on HCT-15 colon, greater than 50 µM; with SN12C renal it was greater than 50 µM; with SF-295 CNS, 16 µM.
Consider `COC(=O)C12CC(NC(=O)c3csc([C@@H](C[C@H](C(C)C)N(C)C(=O)[C@@H](NC(=O)[C@H]4CCCCN4C)C(C)C)OC(C)=O)n3)(C1)C2`, for which the GI50 is 0.000745 µM in the assay on SR leukemia; 0.00429 µM and 0.00333 µM in the assay with OVCAR-8 ovarian; 0.00688 µM and 0.00333 µM in the assay on MOLT-4 leukemia; 0.0153 µM and 0.00473 µM with A498 renal; greater than 33.3 µM in the assay on UACC-257 melanoma; 0.00507 µM and 0.00333 µM in the assay on KM12 colon. Also, the GI50 in the assay on HCT-15 colon was 0.0145 µM and 0.00801 µM; in the assay on SN12C renal, 0.003 µM and 0.00333 µM; in the assay on SF-295 CNS, 0.00454 µM. For the same compound, the TGI is greater than 33.3 µM in the assay on OVCAR-8 ovarian; greater than 33.3 µM in the assay on MOLT-4 leukemia; 0.829 µM and 0.194 µM in the assay with A498 renal; greater than 33.3 µM in the assay with UACC-257 melanoma; greater than 33.3 µM with KM12 colon; greater than 33.3 µM in the assay with OVCAR-4 ovarian. The TGI in the assay with HCT-15 colon and with SN12C renal was greater than 33.3 µM in each case.
In the case of `Fc1ccc(-c2ncn(C3CCNCC3)c2-c2ccnc(Oc3ccc(Oc4ccccc4)cc3)n2)cc1`, the GI50 in the assay on SR leukemia was 2.1 µM; with OVCAR-8 ovarian, 4.2 µM; with MOLT-4 leukemia, 3.31 µM; with A498 renal, 3.57 µM; in the assay on UACC-257 melanoma it was 4.71 µM; in the assay on KM12 colon, 4.16 µM. Moreover, the GI50 with OVCAR-4 ovarian is 3.78 µM; in the assay with HCT-15 colon it was 3.55 µM; in the assay with SN12C renal it was 3.57 µM; with SF-295 CNS it was 4.52 µM. Moreover, the TGI in the assay with SR leukemia was determined as 6.42 µM; in the assay with OVCAR-8 ovarian, 8.4 µM; with MOLT-4 leukemia it was 7.59 µM; in the assay with A498 renal it was 7.01 µM; in the assay on UACC-257 melanoma, 8.54 µM; with KM12 colon, 7.8 µM. In addition, the TGI in the assay with OVCAR-4 ovarian was 7.27 µM; in the assay with HCT-15 colon, 7.29 µM; with SN12C renal, 6.96 µM; in the assay on SF-295 CNS, 8.84 µM.
Regarding `C/C(=C\COc1ccc2ccc(=O)oc2c1)CCC(=O)C(C)(C)O`, the TGI in the assay with SR leukemia is 47.4 µM; with OVCAR-8 ovarian it was 76.3 µM; in the assay on MOLT-4 leukemia, 67.5 µM; with A498 renal, 64.2 µM; in the assay on UACC-257 melanoma, greater than 100 µM; with KM12 colon, 41 µM. In addition, the TGI in the assay on OVCAR-4 ovarian is greater than 100 µM; in the assay with HCT-15 colon, 51.1 µM; in the assay with SN12C renal, 58.4 µM; in the assay with SF-295 CNS it was greater than 100 µM.
On to `CCCCOc1nc2ccccc2cc1C1CNC(=O)c2ccccc2N1` (stereo unspecified), for which the GI50 in the assay with SR leukemia was 1.13 µM; in the assay on OVCAR-8 ovarian, 3.64 µM; with MOLT-4 leukemia it was 2.95 µM; in the assay with A498 renal, 0.807 µM; in the assay with UACC-257 melanoma it was 8.16 µM; in the assay with KM12 colon it was 3.31 µM. Further, the GI50 in the assay on OVCAR-4 ovarian is 4.77 µM; in the assay on HCT-15 colon, 2.3 µM; in the assay with SN12C renal it was 3.77 µM; with SF-295 CNS it was 1.63 µM. The TGI is 12.5 µM in the assay on SR leukemia; 15.7 µM in the assay with OVCAR-8 ovarian; 13.5 µM in the assay with MOLT-4 leukemia; 5.3 µM with A498 renal; greater than 100 µM in the assay on UACC-257 melanoma; 72.5 µM in the assay on KM12 colon. Further, the TGI in the assay on OVCAR-4 ovarian was 24.8 µM; in the assay on HCT-15 colon, 11.3 µM; in the assay with SN12C renal, 18.9 µM; in the assay with SF-295 CNS, 8.49 µM.
In the case of `CC(C)N(C(=O)C12C3C4C5C3C1(C(=O)N(C(C)C)C(C)C)C5C42)C(C)C` (stereo unspecified), the TGI with SR leukemia was 38.7 µM; in the assay on OVCAR-8 ovarian, greater than 100 µM; in the assay with MOLT-4 leukemia, greater than 100 µM; with A498 renal, greater than 100 µM; with UACC-257 melanoma, greater than 100 µM; in the assay on KM12 colon, greater than 100 µM. The TGI with OVCAR-4 ovarian, in the assay with HCT-15 colon, in the assay with SN12C renal and in the assay with SF-295 CNS was greater than 100 µM each time.
Regarding `O=C1c2ccccc2-c2c1c1ccccc1c(=O)n2CCCNCCO`, the GI50 was 0.086 µM in the assay on SR leukemia; 0.239 µM in the assay with OVCAR-8 ovarian; 0.0879 µM in the assay on MOLT-4 leukemia; 1.25 µM in the assay with UACC-257 melanoma; 0.485 µM in the assay with KM12 colon; 1.24 µM in the assay on OVCAR-4 ovarian. The GI50 in the assay on HCT-15 colon is 0.554 µM; in the assay on SN12C renal, 0.454 µM; with SF-295 CNS, 0.568 µM. The TGI worked out at 0.618 µM in the assay with SR leukemia; 11.6 µM in the assay with OVCAR-8 ovarian; 0.522 µM in the assay on MOLT-4 leukemia; 1.28 µM with A498 renal; 4.39 µM in the assay with UACC-257 melanoma; 4 µM with KM12 colon. In addition, the TGI with OVCAR-4 ovarian worked out at 5.95 µM; with HCT-15 colon, 6.13 µM; in the assay on SN12C renal it was 6.25 µM; in the assay on SF-295 CNS it was 4.02 µM.
Regarding `Cn1c(-c2cccs2)cc(-c2ccsc2)c1-c1ccsc1`, the TGI in the assay on SR leukemia, in the assay on OVCAR-8 ovarian, in the assay with MOLT-4 leukemia, in the assay with A498 renal, in the assay with UACC-257 melanoma and with KM12 colon was greater than 100 µM in each case. The TGI with OVCAR-4 ovarian, in the assay with HCT-15 colon, with SN12C renal and in the assay with SF-295 CNS was greater than 100 µM in each case.
With `O=C(N/N=C\c1cc(Br)cc(Br)c1O)N/N=C/c1cc(Br)cc(Br)c1O`, the GI50 in the assay with SR leukemia is 1.13 µM; in the assay with OVCAR-8 ovarian it was 2.88 µM; in the assay on MOLT-4 leukemia it was 2.14 µM; in the assay on A498 renal, 7.81 µM; with UACC-257 melanoma, 2.48 µM; in the assay on KM12 colon, 2.9 µM. The GI50 with OVCAR-4 ovarian is 2.5 µM; with HCT-15 colon, 2.77 µM; with SN12C renal, 4.56 µM; with SF-295 CNS, 2.48 µM. Further, the TGI in the assay with SR leukemia turned out to be 26.7 µM; in the assay on OVCAR-8 ovarian, 16.7 µM; with MOLT-4 leukemia, 11.4 µM; in the assay with A498 renal, 22.8 µM; in the assay on UACC-257 melanoma, 8.92 µM; in the assay on KM12 colon, 11.7 µM. Also, the TGI in the assay with OVCAR-4 ovarian was 12.9 µM; in the assay on HCT-15 colon, 16.1 µM; in the assay on SN12C renal, 17.8 µM; with SF-295 CNS it was 15.7 µM.
